Assay results taken from PMC10967822, “Antimicrobial Indole-3-Carboxamido-Polyamine Conjugates Target Bacterial Membranes and Are Antibiotic Potentiators” (Biomolecules, 2024).
Converted amounts (≈) assume the structure as drawn.

How the values were obtained:
S. aureus ATCC 25923 = assay: MIC, broth dilution, S. aureus; assay type: cell-based, Staphylococcus aureus; conditions: Staphylococcus aureus, ATCC25923; S. aureus ATCC 25923, 18 h; read-out: MIC Sa
MRSA ATCC 43300 = assay: MIC, broth microdilution (CO-ADD), MRSA; assay type: cell-based, methicillin-resistant S. aureus; conditions: Staphylococcus aureus; MRSA ATCC 43300; top dose 32 µg/mL; read-out: MIC MRSA
P. aeruginosa ATCC 27853 [1] = assay: MIC, broth dilution, P. aeruginosa; assay type: cell-based, Pseudomonas aeruginosa; conditions: Pseudomonas aeruginosa, ATCC27853; P. aeruginosa ATCC 27853, 18 h; read-out: MIC Pa
E. coli ATCC 25922 [2] = assay: MIC, broth dilution, E. coli; assay type: cell-based, Escherichia coli; conditions: Escherichia coli, ATCC25922; E. coli ATCC 25922, 18 h
A. baumannii ATCC 19606 = assay: MIC, broth microdilution (CO-ADD), A. baumannii; assay type: cell-based, Acinetobacter baumannii; conditions: Acinetobacter baumannii, ATCC19606, top dose 32 µg/mL
C. albicans ATCC 90028 = assay: Antifungal MIC (CO-ADD), C. albicans; assay type: cell-based; conditions: Candida albicans, ATCC90028, top dose 32 µg/mL
Method: (§1) For the antifungal assay, fungi strains were cultured for 3 days on YPD agar at 30 °C. A yeast suspension of 1 × 10^6 to 5 × 10^6 CFU/mL was prepared from five colonies. These stock suspensions were diluted with a yeast nitrogen base (YNB) (Becton Dickinson, 233520, New South Wales, Australia) broth to a final concentration of 2.5 × 10^3 CFU/mL. […] The plates were covered and incubated at 35 °C for 36 h without shaking. C. albicans MICs were determined by measuring the absorbance at OD530. For C. neoformans, resazurin was added at a 0.006% final concentration to each well and incubated for a further 3 h before the MICs were determined by measuring the absorbance at OD570–600. […] Fluconazole was used as a positive fungal inhibitor standard for C. albicans and C. neoformans. […] The quality control (QC) of the assays was determined by the antimicrobial controls and the Z′-factor (using positive and negative controls).

[3] = tested on: C. neoformans ATCC 208821; assay: Antifungal MIC (CO-ADD), C. neoformans; assay type: cell-based; conditions: Cryptococcus neoformans, ATCC208821, top dose 32 µg/mL
Method: as §1

P. aeruginosa ATCC 27853 [4] = assay: Doxycycline potentiation against P. aeruginosa; assay type: cell-based, Pseudomonas aeruginosa; conditions: doxycycline at 2 µg/mL (4.5 µM); for Dox/Pa fold-change (intrinsic MIC / combination MIC): P. aeruginosa ATCC 27853; for Dox/Pa: concentration required to restore doxycycline activity (combination MIC): P. aeruginosa ATCC 27853, mean n = 3
Text: (§2) These measurements were independently repeated in triplicate.

E. coli ATCC 25922 [5] = assay: Erythromycin potentiation against E. coli; assay type: cell-based, Escherichia coli; conditions: erythromycin at 2 µg/mL (2.7 µM); for Erythro/Ec fold-change (intrinsic MIC / combination MIC): E. coli; for Erythro/Ec: concentration required to restore erythromycin activity (combination MIC): mean n = 3
Text: as §2

[6] = Cytotoxicity assay (resazurin); assay type: cell-based; conditions: human, HEK293 cells, mean n = 2
human red blood cells = assay: Hemolytic assay; assay type: cell-based; conditions: 10% hemolytic activity, mean n = 2
Method: Human whole blood was washed three times with three volumes of 0.9% NaCl and then resuspended in the same solution to a concentration of 0.5 × 10^8 cells/mL, as determined by the manual cell count in a Neubauer hemocytometer. The washed cells were then added to the 384-well compound-containing plates for a final volume of 50 μL. After a 10 min shake on a plate shaker, the plates were then incubated for 1 h at 37 °C. After incubation, the plates were centrifuged at 1000× g for 10 min to pellet cells and debris; 25 μL of the supernatant was then transferred to a polystyrene 384-well assay plate. Hemolysis was determined by measuring the supernatant absorbance at […] (OD405). The absorbance was measured using a Tecan M1000 Pro monochromator plate reader. HC10 and HC50 (concentrations at 10% and 50% hemolysis, respectively) were calculated by a curve fitting the inhibition values vs. log (concentration) using a sigmoidal dose–response function with variable fitting values for the top, bottom, and slope.

[7] = tested on: K. pneumoniae ATCC 700603; assay: MIC, broth microdilution (CO-ADD), K. pneumoniae; conditions: top dose 32 µg/mL

Compound	MIC (S. aureus ATCC 25923) [µM]	MIC (MRSA ATCC 43300) [µM]	MIC (P. aeruginosa ATCC 27853 [1]) [µM]	MIC (E. coli ATCC 25922 [2]) [µM]	MIC (A. baumannii ATCC 19606) [µM]	MIC (C. albicans ATCC 90028) [µM]	MIC [3] [µM]	Dox/Pa fold-change (intrinsic MIC / combination MIC) (P. aeruginosa ATCC 27853 [4]) [fold]	Dox/Pa: concentration required to restore doxycycline activity (combination MIC) (P. aeruginosa ATCC 27853 [4]) [µM]	Erythro/Ec fold-change (intrinsic MIC / combination MIC) (E. coli ATCC 25922 [5]) [fold]	Erythro/Ec: concentration required to restore erythromycin activity (combination MIC) (E. coli ATCC 25922 [5]) [µM]	IC50 at 20 h [6] [µM]	Hemolysis HC10 (human red blood cells) [µM]	MIC Kp [7] [µM]
O=C(NCCCNCCCCCCCCCCCCNCCCNC(=O)c1c[nH]c2ccc(Br)cc12)c1c[nH]c2ccc(Br)cc12.O=C(O)C(F)(F)F.O=C(O)C(F)(F)F [Compound 13f]	3.17	≤ 0.25	203	> 203	2.03	≤ 0.25	≤ 0.25	4	50.7	> 8	25.3	≤ 0.25	14.2	≤0.25
COc1ccc2[nH]cc(C(=O)NCCCNCCCCCCNCCCNC(=O)c3c[nH]c4ccc(OC)cc34)c2c1 [Compound 14b]	248 (≈ 143 µg/mL)	≤ 0.31	> 248	248 (≈ 143 µg/mL)	> 40	> 40	≤ 0.31	> 8	31.1	4	62.1	> 40	>40	>40
COc1ccc2[nH]cc(C(=O)NCCCNCCCCCCCCNCCCNC(=O)c3c[nH]c4ccc(OC)cc34)c2c1 [Compound 14d]	60 (≈ 36.3 µg/mL)	19.2 (≈ 11.6 µg/mL)	> 240	120 (≈ 72.6 µg/mL)	> 38	> 38	≤ 0.3	> 8	30.0	0.5	240	> 38	>38	>38
COc1ccc2[nH]cc(C(=O)NCCCNCCCCCCCCCCNCCCNC(=O)c3c[nH]c4ccc(OC)cc34)c2c1.O=C(O)C(F)(F)F.O=C(O)C(F)(F)F [Compound 14e]	29	≤ 0.29	232	58.1	> 37	> 37	≤ 0.29	8	29.0	0.5	116	> 37	>37	>37
COc1ccc2[nH]cc(C(=O)NCCCNCCCCCCCCCCCCNCCCNC(=O)c3c[nH]c4ccc(OC)cc34)c2c1.O=C(O)C(F)(F)F.O=C(O)C(F)(F)F [Compound 14f]	3.52	≤ 0.28	112	14.1	> 36	≤ 0.28	≤ 0.28	2	56.2	1	14.1	> 36	>36	>36
Cc1ccc2[nH]cc(C(=O)NCCCNCCCCNCCCNC(=O)c3c[nH]c4ccc(C)cc34)c2c1 [Compound 15a]	67.1 (≈ 34.7 µg/mL)	≤ 0.34	> 269	> 269	> 43	> 43	≤ 0.34	> 8	33.6	> 4	67.1	> 43	>43	>43
Cc1ccc2[nH]cc(C(=O)NCCCNCCCCCCNCCCNC(=O)c3c[nH]c4ccc(C)cc34)c2c1 [Compound 15b]	259 (≈ 141 µg/mL)	5.18 (≈ 2.82 µg/mL)	> 259	129 (≈ 70.3 µg/mL)	> 41	> 41	≤ 0.32	> 8	32.4	4	32.4	> 41	>41	>41
Cc1ccc2[nH]cc(C(=O)NCCCNCCCCCCCNCCCNC(=O)c3c[nH]c4ccc(C)cc34)c2c1 [Compound 15c]	63.5 (≈ 35.5 µg/mL)	≤ 0.32	> 254	254 (≈ 142 µg/mL)	> 41	> 41	≤ 0.32	> 4	63.5	4	63.5	> 41	>41	>41
Cc1ccc2[nH]cc(C(=O)NCCCNCCCCCCCCNCCCNC(=O)c3c[nH]c4ccc(C)cc34)c2c1 [Compound 15d]	31.2 (≈ 17.9 µg/mL)	≤ 0.31	250 (≈ 143 µg/mL)	125 (≈ 71.6 µg/mL)	> 40	> 40	≤ 0.31	8	31.2	4	31.2	> 40	>40	>40
